Reference: patent publication US20110144125A1, “Anti-Arrhythmia Agents, Methods of Their Use, Methods of Their Identification and Kits Therefore” (THE UAB RESEARCH FOUNDATION, priority 2008, published 2011)

System: rat right atria
Assay: Right atrial spontaneous (pacemaker-driven) contraction frequency
Details: 30 nM isoproterenol
Protocol: Male Sprague-Dawley rats (325-400 g) were anesthetized with intra-peritoneal pentobarbital (0.1 g/kg). Their right and left atria were isolated, superfused at 30° C. in Krebs-Henseleit buffer, and nearly isometric forces of contraction were measured from these muscles (Wolkowicz et al., 2002). 2-APB was prepared as a 150 mM dimethyl sulfoxide stock.
Left atria (n=9) were paced at 0.1 Hz, treated with 300 nM BayK 8644 for 5 min, then with 20 μM 2-APB for 10 min, and the pacing stimulus was stopped. These preparations then were incubated with six increasing concentrations of zatebradine (10-100 μM) for 3-5 min at each concentration, and rates of SMA were recorded. Untreated right atria (n=9) also were titrated with zatebradine and its effect on contraction frequency was recorded.
To test whether zatebradine affects the SMA occurring in the presence of 2-APB and isoproterenol, left atria (n=7) were paced at 0.1 Hz, treated with 30 nM isoproterenol for 5 min, then with 20 μM 2-APB for 10 min, and the pacing stimulus was stopped. Rates of SMA were recorded, these left atria were exposed to 70 μM zatebradine for 10 min, and rates of SMA were recorded again. A group of right atria (n=7) also were exposed to 30 nM isoproterenol for 5 min and then to 70 μM zatebradine for 10 min. Right atrial contraction frequency was recorded at these two times.
To test whether ZD-7288 (4-Ethylphenyl amino-1,2-dimethyl-6-methylaminopyridinium chloride), an If inhibitor structurally unrelated to zatebradine (Baruscotti et al., 2005; Sanders et al., 2006) affects the SMA occurring in the presence of 2-APB and BayK 8644, rat left atria (n=7) were treated with 300 nM BayK 8644 for 5 min, then with 20 μM 2-APB for 10 min, and the rates of SMA were recorded. These atria then were incubated with six increasing concentrations of ZD-7288 (10-100 μM) for 3-5 min at each concentration, and the rates of SMA were recorded. Right atria (n=7) were titrated similarly with ZD-7288 (0-100 μM) and the change in their contraction frequency was recorded.

With `CC(C)NCC(O)c1ccc(O)c(O)c1` (stereo not shown) [isoproterenol] the “right atrial contraction frequency” value was 276±11.4 contractions/min.
